Assay results published in paper PMC4363128 (Neuroscience, 2013).

Tests used:
Y1 receptor = target: T1, Y1 receptor (Mus musculus, UniProt Q04573); assay type: biochemical
T1 sequence (Q04573 1-382): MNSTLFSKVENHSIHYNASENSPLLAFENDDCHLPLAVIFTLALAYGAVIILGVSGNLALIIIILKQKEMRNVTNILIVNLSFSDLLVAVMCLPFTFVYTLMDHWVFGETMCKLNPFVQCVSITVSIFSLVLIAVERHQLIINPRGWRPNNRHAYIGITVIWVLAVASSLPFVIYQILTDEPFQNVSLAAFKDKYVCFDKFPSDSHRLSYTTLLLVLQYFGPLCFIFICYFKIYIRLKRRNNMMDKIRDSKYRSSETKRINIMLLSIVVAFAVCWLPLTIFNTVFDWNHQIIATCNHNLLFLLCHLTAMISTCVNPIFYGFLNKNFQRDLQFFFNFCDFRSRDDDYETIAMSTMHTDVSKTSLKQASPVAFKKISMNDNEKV

[1] = test system: Y1 receptors; NK1R internalization in lamina I neurons; assay: NK1R internalization evoked by dorsal root stimulation in spinal cord slices; assay type: cell-based, rat; conditions: BIBO3304 100 nM with 100 nM [Leu^31,Pro^34]NPY
[2] = test system: NK1R internalization in dorsal horn lamina I neurons; assay type: in vivo, rat; conditions: intrathecal NPY one hour before hind paw clamp
[3] = test system: NK1R internalization in dorsal horn lamina I neurons; assay: NK1R internalization evoked by non-noxious stimulus; assay type: in vivo, rat; conditions: intrathecal NPY, carrageenan-inflamed paw; printed 'by nearly 50%'

Molecule | IC50 (Y1 receptor) [nM] | effect on inhibition of NK1R internalization produced by Y1 agonist [1] | inhibition of evoked NK1R internalization [2] [%] | inhibition of brush-evoked NK1R internalization [3] [%]
NC(=O)NCc1ccc(CNC(=O)[C@@H](CCCN=C(N)N)NC(=O)C(c2ccccc2)c2ccccc2)cc1 [BIBO3304] | 7.85 | completely reversed | – | –
Neuropeptide Y [NPY] | – | – | 50 | ~50
